In patent US5241047A, “Synthetic peptides and mixtures thereof for detecting HIV antibodies” (BioChem Pharma Inc., priority 1990, dated 1993):
Positions of bridges follow the written chain, without caps; N, C: chain ends. Residues, ends and D or L forms follow the SMILES beside them.

Experiments:
Type in all cases: binding, human
HIV antibodies = test: ELISA with peptide-coated wells, samples negative for HIV antibodies or not described
Experimental: (§1) A preferred convenient and classical technique for the determination of antibodies against HIV-1 or HIV-2 using a peptide or a peptide mixture of the present invention is an enzyme-linked immunosorbent assay (ELISA). In this assay, for example, a peptide, peptide mixture or combination of the present invention is adsorbed onto, or covalently coupled to, the wells of a microtiter plate. The wells are then treated with the sera or analyte to be tested. After washing, antihuman IgG or antihuman IgM labeled with peroxidase is added to the wells. The determination of the peroxidase is performed with a corresponding substrate, e.g., with o-phenylene diamine. Without departing from the usefulness of the illustrative assay, the peroxidase can be exchanged by another label, e.g., by a radioactive, fluorescence chemiluminescence or infrared emitting label.
(§2) O.D. Values were obtained at 450 nm and the blank values measured with the sample dilution buffer were not subtracted.
(§3) Samples NEIA-2*2, BBI-1-162 to 168, 87B140, 87L139, 87V103 are all negative for HIV antibodies. Sample LSPQ-S9-1 is an early seroconverter (HIV-1). The series labeled CAP-113 to CAP-120 corresponds to a pool of seven HIV-1 positive plasma samples serially diluted with an HIV-negative plasma. CAP-113 is the pool diluted 50-fold with the HIV-negative plasma; CAP-114 is diluted 100-fold; CAP-115 is diluted 200-fold; etc. Similarly, the series labeled CAP-222 to CAP-230 corresponds to a pool of seven HIV-2 confirmed seropositive plasma samples. CAP-222 is diluted by 50 with an HIV-negative plasma; CAP-223 by 100; etc. Before the assay is done, each sample, including the CAP-series, is further diluted by 50 with the sample dilution buffer. In these tests, the cut-off for seropositivity is defined as the sum of the O.D. value for sample NEIA-2*2 plus 0.100.
(§4) Each well of the microtiter plate is saturated with 100 μl of a solution containing a peptide or mixture of peptides (5 μg/ml) and left overnight. The wells are emptied and washed twice with a washing buffer (Tris, 0.043M; NaCl, 0.5M; thimerosal, 0.01% w/v; Tween 20, 0.05% v/v; pH 7.4). The wells are then saturated with 0.35 ml of washing buffer for 1 hr. at 37° C. and washed once with the same buffer. Serum samples to be analyzed are diluted with specimen buffer (washing buffer plus casein, 0.05% w/v). The wells are rinsed with washing buffer prior to the addition of the diluted serum sample (0.1 ml). These are left to incubate for 1 hr. at room temperature. The wells are then emptied, washed twice rapidly and then once for two minutes with washing buffer. […] The wells are then emptied and washed twice rapidly with washing buffer and then five times in which the buffer was in contact with the well 2 minutes per washing. The substrate solution (3,3',5,5'-tetramethylbenzidine, 8 mg per ml of DMSO) is diluted with 100 volumes 0.1M citrate-acetate buffer, pH 5.6 containing 0.1% v/v of 30% H2 O2 and added to each well (0.1 ml per well). After 10 minutes the contents of each well is treated with 0.1 ml 2N H2 SO4 and the optical density read at 450 nm. All determinations are done in duplicate.
(§5) Peptide cocktails were prepared by mixing together equal volumes of two peptide solutions each at 10 ug/ml. One cocktail used peptides BCH-87c and BCH-202c and the other cocktail was a mixture of BCH-87ck and BCH-202ck. Each cocktail was used to coat two series of plates as described earlier.

HIV-1 antibodies = test: ELISA with peptide-coated wells, HIV-1 antibody positive samples (diluted plasma pool, seroconversion samples)
Experimental: as §1, §2, §3
as §4, with “duplicate. […]” for “duplicate.”

HIV-2 antibodies = test: ELISA with peptide-coated wells, HIV-2 seropositive plasma pool serially diluted; conditions: Test 314
Experimental: as §1, §2, §3, §4, §5

[1] = Test 350, sample 2-87-L-139 (negative for HIV antibodies)
[2] = Test 350, sample 2-87-V-103 (negative for HIV antibodies)
[3] = Test 350, sample 89-D-307 (not described)
[4] = Test 350, sample NEIA-2*2 (negative for HIV antibodies)
[5] = Test 350, sample CAP-10 (progressively higher dilutions)
[6] = Test 350, sample CAP-11 (progressively higher dilutions)
[7] = Test 350, sample CAP-12 (progressively higher dilutions)
[8] = Test 350, sample CAP-13 (progressively higher dilutions)
[9] = Test 350, sample CAP-14 (progressively higher dilutions)
[10] = Test 350, sample CAP-15 (progressively higher dilutions)
[11] = Test 350, sample CAP-16 (progressively higher dilutions)
[12] = Test 350, sample CAP-17 (progressively higher dilutions)
[13] = Test 350, sample CAP-18 (progressively higher dilutions)
[14] = Test 350, sample CAP-19 (progressively higher dilutions)

SMILES | O.D. 450 nm (HIV antibodies; [1]) | O.D. 450 nm (HIV antibodies; [2]) | O.D. 450 nm (HIV antibodies; [3]) | O.D. 450 nm (HIV antibodies; [4]) | O.D. 450 nm (HIV-1 antibodies; [5]) | O.D. 450 nm (HIV-1 antibodies; [6]) | O.D. 450 nm (HIV-1 antibodies; [7]) | O.D. 450 nm (HIV-1 antibodies; [8]) | O.D. 450 nm (HIV-1 antibodies; [9]) | O.D. 450 nm (HIV-1 antibodies; [10]) | O.D. 450 nm (HIV-1 antibodies; [11]) | O.D. 450 nm (HIV-1 antibodies; [12]) | O.D. 450 nm (HIV-1 antibodies; [13]) | O.D. 450 nm (HIV-1 antibodies; [14]) | further results
CC[C@H](C)[C@H](NC(=O)CNC(=O)[C@H](CC(C)C)NC(=O)[C@H](CC(C)C)NC(=O)[C@H](CCC(N)=O)NC(=O)[C@H](CCC(N)=O)NC(=O)[C@H](CC(=O)O)NC(=O)[C@H](CCCCN)NC(=O)[C@H](CC(C)C)NC(=O)[C@H](Cc1ccc(O)cc1)NC(=O)[C@H](CCCNC(=N)N)NC(=O)[C@H](CCC(=O)O)NC(=O)[C@@H](NC(=O)[C@H](C)NC(=O)[C@H](CC(C)C)NC(=O)[C@@H](NC(=O)[C@@H](N)CCCCN)[C@@H](C)CC)C(C)C)C(=O)N[C@@H](Cc1c[nH]c2ccccc12)C(=O)NCC(=O)N[C@H]1CSSC[C@@H](C(=O)N[C@H](C(=O)N[C@H](C(=O)N[C@@H](C)C(=O)N[C@H](C(=O)N2CCC[C@H]2C(=O)N[C@@H](Cc2c[nH]c3ccccc23)C(=O)N[C@@H](CC(N)=O)C(=O)N[C@@H](C)C(=O)N[C@@H](CO)C(=O)O)C(C)C)[C@@H](C)O)[C@@H](C)O)NC(=O)[C@H]([C@@H](C)CC)NC(=O)[C@H](CC(C)C)NC(=O)[C@H](CCCCN)NC(=O)CNC(=O)[C@H](CO)NC1=O [BCH-87ck] (H-KILAVERYLKDQQLLGIWGCSGKLICTTAVPWNAS-OH; disulfide 20-26) | 0.409 | 0.015 | 0.022 | 0.034 | > 2.8 | > 2.8 | 2.735 | 1.676 | 1.089 | 0.643 | 0.274 | 0.191 | 0.114 | 0.053 | O.D. 450 nm (HIV antibodies; Test 314, sample BBI-1-162 (negative for HIV antibodies)): 0.015; O.D. 450 nm (HIV antibodies; Test 314, sample BBI-1-169 (not described)): 0.090; O.D. 450 nm (HIV antibodies; Test 314, sample BBI-1-172 (not described)): 0.019; O.D. 450 nm (HIV antibodies; Test 314, sample NEIA-2*2 (negative for HIV antibodies)): 0.050; O.D. 450 nm (HIV-1 antibodies; Test 314, sample CAP-113 (HIV-1 positive plasma pool diluted 50-fold)): > 2.8; O.D. 450 nm (HIV-1 antibodies; Test 314, sample CAP-114 (HIV-1 positive pool diluted 100-fold)): > 2.8; O.D. 450 nm (HIV-1 antibodies; Test 314, sample CAP-115 (HIV-1 positive pool diluted 200-fold)): 2.593; O.D. 450 nm (HIV-1 antibodies; Test 314, sample CAP-116 (HIV-1 positive pool, serial dilution)): 1.871; O.D. 450 nm (HIV-1 antibodies; Test 314, sample CAP-117 (HIV-1 positive pool, serial dilution)): 1.158; O.D. 450 nm (HIV-1 antibodies; Test 314, sample CAP-118 (HIV-1 positive pool, serial dilution)): 0.679; O.D. 450 nm (HIV-1 antibodies; Test 314, sample CAP-119 (HIV-1 positive pool, serial dilution)): 0.392; O.D. 450 nm (HIV-1 antibodies; Test 314, sample CAP-120 (HIV-1 positive pool, serial dilution)): 0.229; O.D. 450 nm (HIV-2 antibodies; sample CAP-222 (HIV-2 positive plasma pool diluted by 50)): 0.069; O.D. 450 nm (HIV-2 antibodies; sample CAP-223 (HIV-2 positive pool diluted by 100)): 0.060; O.D. 450 nm (HIV-2 antibodies; sample CAP-224 (HIV-2 positive pool, serial dilution)): 0.054; O.D. 450 nm (HIV-2 antibodies; sample CAP-225 (HIV-2 positive pool, serial dilution)): 0.050; O.D. 450 nm (HIV-2 antibodies; sample CAP-226 (HIV-2 positive pool, serial dilution)): 0.050; O.D. 450 nm (HIV-2 antibodies; sample CAP-227 (HIV-2 positive pool, serial dilution)): 0.043; O.D. 450 nm (HIV-2 antibodies; sample CAP-228 (HIV-2 positive pool, serial dilution)): 0.042; O.D. 450 nm (HIV-2 antibodies; sample CAP-230 (HIV-2 positive pool, serial dilution)): 0.049
CC[C@H](C)[C@H](NC(=O)[C@H](CC(C)C)NC(=O)[C@H](CCCCN)NC(=O)CNC(=O)[C@H](CO)NC(=O)[C@H](C)NC(=O)[C@H](CC(N)=O)NC(=O)[C@H](Cc1c[nH]c2ccccc12)NC(=O)[C@@H]1CCCN1C(=O)[C@@H](NC(=O)[C@H](C)NC(=O)[C@@H](NC(=O)[C@@H](NC(=O)[C@@H]1CSSC[C@H](NC(=O)CNC(=O)[C@H](Cc2c[nH]c3ccccc23)NC(=O)[C@@H](NC(=O)CNC(=O)[C@H](CC(C)C)NC(=O)[C@H](CC(C)C)NC(=O)[C@H](CCC(N)=O)NC(=O)[C@H](CCC(N)=O)NC(=O)[C@H](CC(=O)O)NC(=O)[C@H](CCCCN)NC(=O)[C@H](CC(C)C)NC(=O)[C@H](Cc2ccc(O)cc2)NC(=O)[C@H](CCCNC(=N)N)NC(=O)[C@H](CCC(=O)O)NC(=O)[C@@H](NC(=O)[C@H](C)NC(=O)[C@H](CC(C)C)NC(=O)[C@@H](NC(=O)[C@@H](N)CCCCN)[C@@H](C)CC)C(C)C)[C@@H](C)CC)C(=O)N[C@@H](CO)C(=O)NCC(=O)N[C@@H](CCCCN)C(=O)N[C@@H](CC(C)C)C(=O)N[C@@H]([C@@H](C)CC)C(=O)N1)[C@@H](C)O)[C@@H](C)O)C(C)C)C(=O)O [BCH-408] (H-KILAVERYLKDQQLLGIWGCSGKLICTTAVPWNASGKLI-OH; disulfide 20-26) | 0.025 | 0.014 | 0.029 | 0.035 | > 2.8 | > 2.8 | > 2.8 | 2.319 | 1.433 | 0.835 | 0.455 | 0.244 | 0.156 | 0.102 | sensitivity compared to the other peptides (HIV-1 antibodies; Table 3, versus BCH-87c, BCH-87ck, BCH-266 at progressively higher dilutions): superior sensitivity
